In patent US10689400B2, “Macrocycle kinase inhibitors” (Turning Point Therapeutics, Inc., priority 2016, dated 2020):
pIC50: −log10 of the molar value.

What was measured:
[1] = system: KM12 cells (harboring endogenous TPM3-TRKA fusion gene); experiment: KM12 cell proliferation assay (CellTiter-Glo, 72 hours); assay type: cell-based; conditions: Homo sapiens, KM12 colorectal cell line, 72 hours incubation
Description: (§1) Colorectal cell lines KM 12 (harboring endogenous TPM3-TRKA fusion gene) cells were cultured in DMEM medium, supplemented with 10% fetal bovine serum and 100 U/mL of penicillin/streptomycin. 5000 cells were seeded in 384 well white plate for 24 hours before compounds treatment. Cell proliferation was measured using CellTiter-Glo luciferase-based ATP detection assay (Promega) following the manufactures's protocol after 72 hours incubation. IC50 determinations were performed using GraphPad Prism software (GraphPad, Inc., San Diego, Calif.).
as §1, with “Alternatively: Colorectal” for “Colorectal”, “line KM12” for “lines KM 12”, “DMEM medium, supplemented with 10% fetal bovine serum and 100 U/mL of penicillin/streptomycin. Essential thrombocythemia cell line SET-2 cells (harboring endogenous JAK2 V618F point mutation) were cultured in RPMI” for “DMEM”

[2] = system: SET-2 cells (harboring endogenous JAK2 V618F point mutation); experiment: SET-2 cell proliferation assay (CellTiter-Glo, 72 hours); assay type: cell-based; conditions: Homo sapiens, SET-2 essential thrombocythemia cell line, 72 hours incubation, read-out: Cell Proliferation JAK2 SET2 Cell IC50
Description: as §1, with “Alternatively: Colorectal” for “Colorectal”, “line KM12” for “lines KM 12”, “DMEM medium, supplemented with 10% fetal bovine serum and 100 U/mL of penicillin/streptomycin. Essential thrombocythemia cell line SET-2 cells (harboring endogenous JAK2 V618F point mutation) were cultured in RPMI” for “DMEM”

[3] = molecular target: T1, BTK kinase (Homo sapiens, UniProt Q06187); experiment: BTK biochemical kinase assay (radiometric; Eurofins KinaseProfiler / Reaction Biology); conditions: ATP 10 μM
T1 construct: purchased Eurofins (KinaseProfiler) / Reaction Biology Corporation
T1 sequence (Q06187 whole entry): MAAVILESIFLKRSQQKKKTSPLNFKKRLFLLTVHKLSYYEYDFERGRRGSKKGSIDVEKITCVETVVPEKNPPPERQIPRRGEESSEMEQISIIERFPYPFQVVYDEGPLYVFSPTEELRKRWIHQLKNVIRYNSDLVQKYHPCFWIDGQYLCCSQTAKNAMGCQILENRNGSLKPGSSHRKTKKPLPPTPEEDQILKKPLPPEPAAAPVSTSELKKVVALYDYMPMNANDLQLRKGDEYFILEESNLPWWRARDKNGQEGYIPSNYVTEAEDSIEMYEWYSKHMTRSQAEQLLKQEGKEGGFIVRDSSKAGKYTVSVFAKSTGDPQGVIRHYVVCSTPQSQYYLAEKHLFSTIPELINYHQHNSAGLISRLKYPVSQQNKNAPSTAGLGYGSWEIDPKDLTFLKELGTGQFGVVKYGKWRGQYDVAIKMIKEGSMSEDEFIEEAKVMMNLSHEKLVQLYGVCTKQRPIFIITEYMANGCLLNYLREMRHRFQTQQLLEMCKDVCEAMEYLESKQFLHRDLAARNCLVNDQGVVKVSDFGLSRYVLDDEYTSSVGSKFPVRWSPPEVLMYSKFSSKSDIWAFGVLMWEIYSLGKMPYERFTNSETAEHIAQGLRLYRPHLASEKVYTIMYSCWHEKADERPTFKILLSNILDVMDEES
Description: The Compounds were tested against BTK kinase using the Eurofins standard KinaseProfiler™ assays and following the relevant standard operating procedures. Protein kinases were assayed in a radiometric format. Full details of the assay for each kinase are available on the Eurofins website, or in the accompanying protocol document. All compounds were prepared to a working stock of 50× final assay concentration in 100% DMSO. Where appropriate, more concentrated stocks were diluted manually to 50× using 100% DMSO. Compounds supplied as powders were reconstituted to a 10 mM stock in 100% DMSO before further dilution to 50×. The required volume of the 50× stock of test compound was added to the assay well, before a reaction mix containing the enzyme and substrate was added. The reaction was initiated by the addition of ATP at the selected 10 μM concentration. There was no pre-incubation of the compound with the enzyme/substrate mix prior to ATP addition. For IC50 determinations, data are analysed using XLFit version 5.3 (ID Business Solutions). Sigmoidal dose-response (variable slope) curves are fit based on the mean result for each test concentration using non-linear regression analysis. Where the top and/or bottom of the curve fall >10% out with 100 and 0, respectively, either or both of these limits may be constrained at 100 and 0, provided that the QC criterion on R^2 is met.
The BTK biochemical kinase assay was also performed at Reaction Biology Corporation (www.reactionbiology.com, Malvern, Pa.) following the procedures described in the reference (Anastassiadis T, et al Nat Biotechnol. 2011, 29, 1039). Specific kinase/substrate pairs along with required cofactors were prepared in reaction buffer; 20 mM Hepes pH 7.5, 10 mM MgCl2, 1 mM EGTA, 0.02% Brij35, 0.02 mg/ml BSA, 0.1 mM Na3VO4, 2 mM DTT, 1% DMSO (for specific details of individual kinase reaction components see Supplementary Table 2). Compounds were delivered into the reaction, followed ˜20 minutes later by addition of a mixture of ATP (Sigma, St. Louis Mo.) and ^33P ATP (Perkin Elmer, Waltham Mass.) to a final concentration of 10 μM. Reactions were carried out at room temperature for 120 min, followed by spotting of the reactions onto P81 ion exchange filter paper (Whatman Inc., Piscataway, N.J.). Unbound phosphate was removed by extensive washing of filters in 0.75% phosphoric acid. […] IC50 values and curve fits were obtained using Prism (GraphPad Software).

Row | pIC50 [3] | SMILES | pIC50 [1] | pIC50 [2]
1 | 7.22 | C[C@H]1CNC(=O)c2cnn3ccc(nc23)N[C@H](C)c2cc(F)cc(-c3cnn(C)c3)c2O1 [Compound 18, (7S,13R)-11-fluoro-7,13-dimethyl-9-(1-methyl-1H-pyrazol-4-yl)-6,7,13,14-tetrahydro-1,15-ethenopyrazolo[4,3-f][1,4,8,10]benzoxatriazacyclotridecin-4(5H)-one] | 7.63 | 6.22
2 | 7.22 | C[C@H]1Nc2ccn3ncc(c3n2)C(=O)NCCOc2c(Br)cc(F)cc21 [Compound 5, (13R)-9-bromo-11-fluoro-13-methyl-6,7,13,14-tetrahydro-1,15-ethenopyrazolo[4,3-f][1,4,8,10]benzoxatriazacyclotridecin-4(5H)-one] | 8.30 | 6.70
3 | 7.65 | CC(C)N1Cc2cc(F)cc(F)c2OCCNC(=O)c2cnn3ccc1nc23 [Compound 9, 9,11-difluoro-14-(propan-2-yl)-6,7,13,14-tetrahydro-1,15-ethenopyrazolo[4,3-f][1,4,8,10]benzoxatriazacyclotridecin-4(5H)-one] | 8.28 | 6.88
4 | 7.32 | C[C@H]1Nc2ccn3ncc(c3n2)C(=O)NCCOc2c(O)cc(F)cc21 [Compound 17, (13R)-11-fluoro-9-hydroxy-13-methyl-6,7,13,14-tetrahydro-1,15-ethenopyrazolo[4,3-f][1,4,8,10]benzoxatriazacyclotridecin-4(5H)-one] | 7.81 | 6.22
5 | 6.35 | COc1cc(F)cc2c1OCCNC(=O)c1cnn3ccc(nc13)N[C@@H]2C [Compound 16, (13R)-11-fluoro-9-methoxy-13-methyl-6,7,13,14-tetrahydro-1,15-ethenopyrazolo[4,3-f][1,4,8,10]benzoxatriazacyclotridecin-4(5H)-one] | 7.86 | 6.52
6 | 6.62 | Cc1nn(C)cc1-c1cc(F)cc2c1O[C@@H](C)CNC(=O)c1cnn3ccc(nc13)N[C@@H]2C [Compound 20, (7S,13R)-9-(1,3-dimethyl-1H-pyrazol-4-yl)-11-fluoro-7,13-dimethyl-6,7,13,14-tetrahydro-1,15-ethenopyrazolo[4,3-f][1,4,8,10]benzoxatriazacyclotridecin-4(5H)-one] | 8.19 | 
7 | 7.85 | C[C@H]1CNC(=O)c2cnn3ccc(nc23)N[C@H](C)c2c(ccc(F)c2F)O1 [Compound 11, (7S,13R)-11,12-difluoro-7,13-dimethyl-6,7,13,14-tetrahydro-1,15-ethenopyrazolo[4,3-f][1,4,8,10]benzoxatriazacyclotridecin-4(5H)-one] | 9.70 | 8.41
8 | 9.27 | CC(C)N1Cc2c(ccc(F)c2Cl)O[C@@H](C)CNC(=O)c2cnn3ccc1nc23 [Compound 14, (7S)-12-chloro-11-fluoro-7-methyl-14-(propan-2-yl)-6,7,13,14-tetrahydro-1,15-ethenopyrazolo[4,3-f][1,4,8,10]benzoxatriazacyclotridecin-4(5H)-one] | 9.70 | 5.82
9 | 8.60 | C[C@H]1CNC(=O)c2cnn3ccc(nc23)N[C@H](C)c2c(ccc(F)c2Cl)O1 [Compound 2, (7S,13R)-12-chloro-11-fluoro-7,13-dimethyl-6,7,13,14-tetrahydro-1,15-ethenopyrazolo[4,3-f][1,4,8,10]benzoxatriazacyclotridecin-4(5H)-one] | 8.29 | 5.52

Second part, the compound before the results:

Row | SMILES | pIC50 [3] | pIC50 [1] | pIC50 [2]
10 | C[C@H]1Nc2ccn3ncc(c3n2)C(=O)NCCOc2c(-c3cnn(C)c3)cc(F)cc21 [Compound 19, (13R)-11-fluoro-13-methyl-9-(1-methyl-1H-pyrazol-4-yl)-6,7,13,14-tetrahydro-1,15-ethenopyrazolo[4,3-f][1,4,8,10]benzoxatriazacyclotridecin-4(5H)-one] | 6.32 | 7.27 | 6.00
11 | CC(C)N1Cc2c(ccc(F)c2Cl)OCCNC(=O)c2cnn3ccc1nc23 [Compound 13, 12-chloro-11-fluoro-14-(propan-2-yl)-6,7,13,14-tetrahydro-1,15-ethenopyrazolo[4,3-f][1,4,8,10]benzoxatriazacyclotridecin-4(5H)-one] | 8.26 | 6.52 | 5.00
12 | CC(C)Oc1cc(F)cc2c1OCCNC(=O)c1cnn3ccc(nc13)N[C@@H]2C [Compound 15, (13R)-11-fluoro-13-methyl-9-[(propan-2-yl)oxy]-6,7,13,14-tetrahydro-1,15-ethenopyrazolo[4,3-f][1,4,8,10]benzoxatriazacyclotridecin-4(5H)-one] | 6.81 | 8.70 | 6.30
13 | C[C@H]1Nc2ccn3ncc(c3n2)C(=O)NCCOc2c(Cl)cc(F)cc21 [Compound 6, (13R)-9-chloro-11-fluoro-13-methyl-6,7,13,14-tetrahydro-1,15-ethenopyrazolo[4,3-f][1,4,8,10]benzoxatriazacyclotridecin-4(5H)-one] | 7.19 | 8.38 | 7.11
14 | C[C@H]1CNC(=O)c2cnn3ccc(nc23)N[C@H](C)c2cc(F)cc(Br)c2O1 [Compound 7, (7S,13R)-9-bromo-11-fluoro-7,13-dimethyl-6,7,13,14-tetrahydro-1,15-ethenopyrazolo[4,3-f][1,4,8,10]benzoxatriazacyclotridecin-4(5H)-one] |  | 9.70 | 8.17
15 | C[C@H]1CNC(=O)c2cnn3ccc(nc23)N[C@H](C)c2cc(F)cc(F)c2O1 [Compound 1, (7S,13R)-9,11-difluoro-7,13-dimethyl-6,7,13,14-tetrahydro-1,15-ethenopyrazolo[4,3-f][1,4,8,10]benzoxatriazacyclotridecin-4(5H)-one] | 8.61 | 9.70 | 6.92
16 | C[C@H]1Nc2ccn3ncc(c3n2)C(=O)NC[C@@H](CO)Oc2ccc(F)c(Cl)c21 [Compound 4, (7S,13R)-12-chloro-11-fluoro-7-(hydroxymethyl)-13-methyl-6,7,13,14-tetrahydro-1,15-ethenopyrazolo[4,3-f][1,4,8,10]benzoxatriazacyclotridecin-4(5H)-one] |  | 7.34 | 5.52
17 | CC(C)N1Cc2cc(F)cc(Cl)c2OCCNC(=O)c2cnn3ccc1nc23 [Compound 10, 9-chloro-11-fluoro-14-(propan-2-yl)-6,7,13,14-tetrahydro-1,15-ethenopyrazolo[4,3-f][1,4,8,10]benzoxatriazacyclotridecin-4(5H)-one] | 6.75 | 10.00 | 5.83
18 | CC(C)N1Cc2cc(F)cc(F)c2OCCCNC(=O)c2cnn3ccc1nc23 [Compound 12, 10,12-difluoro-15-(propan-2-yl)-5,6,7,8,14,15-hexahydro-4H-1,16-ethenopyrazolo[4,3-g][1,5,9,11]benzoxatriazacyclotetradecin-4-one] | 8.01 | 9.70 | 5.30
19 | C[C@H]1CNC(=O)c2cnn3ccc(nc23)N[C@H](C)c2cc(F)cc(Cl)c2O1 [Compound 8, (7S,13R)-9-chloro-11-fluoro-7,13-dimethyl-6,7,13,14-tetrahydro-1,15-ethenopyrazolo[4,3-f][1,4,8,10]benzoxatriazacyclotridecin-4(5H)-one] | 8.40 | 9.70 | 7.08
20 | C[C@H]1Nc2ccn3ncc(c3n2)C(=O)NC[C@@H](CO)Oc2c(F)cc(F)cc21 [Compound 3, (7S,13R)-9,11-difluoro-7-(hydroxymethyl)-13-methyl-6,7,13,14-tetrahydro-1,15-ethenopyrazolo[4,3-f][1,4,8,10]benzoxatriazacyclotridecin-4(5H)-one] |  | 7.67 | 7.81
